Measurements from PubChem BioAssay (NCI).
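1) Cells in 96-well plates. 2) Compound, 48 h, 5 concentrations. 3) Linear interpolation between surrounding doses. 4) Unreached endpoint = highest concentration. Abbreviation: GI50, concentration required for 50% inhibition of growth. TGI is the concentration that stops growth completely.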

Legend:
Assay in all cases: inhibition of tumour cell growth, NCI panel, 48 h
[1] = system: K-562 leukemia
[2] = system: CAKI-1 renal
[3] = system: U251 CNS
[4] = system: PC-3 prostate
[5] = system: HCT-15 colon
[6] = system: ACHN renal
[7] = system: BT-549 breast
[8] = system: HCC-2998 colon
[9] = system: OVCAR-8 ovarian
[10] = system: RXF 393 renal
[11] = system: MCF7 breast
[12] = system: SF-268 CNS
[13] = system: LOX IMVI melanoma
[14] = system: SK-MEL-2 melanoma
[15] = system: NCI/ADR-RES ovarian
[16] = system: SK-OV-3 ovarian
[17] = system: NCI-H522 lung
[18] = system: MALME-3M melanoma
[19] = system: KM12 colon
[20] = system: SF-295 CNS
[21] = system: MDA-MB-435
[22] = system: SK-MEL-5 melanoma
[23] = system: SR leukemia
[24] = system: UACC-62 melanoma
[25] = system: NCI-H460 lung
[26] = system: MDA-MB-231 breast
[27] = system: HCT-116 colon
[28] = system: SW-620 colon
[29] = system: SK-MEL-28 melanoma
[30] = system: SNB-19 CNS
[31] = system: SF-539 CNS
[32] = system: 786-0 renal
[33] = system: MOLT-4 leukemia
[34] = system: SNB-75 CNS
[35] = system: CCRF-CEM leukemia
[36] = system: NCI-H226 lung
[37] = system: COLO 205 colon
[38] = system: NCI-H23 lung
[39] = system: HS 578T breast
[40] = system: RPMI-8226 leukemia
[41] = system: IGROV1 ovarian
[42] = system: UACC-257 melanoma
[43] = system: HOP-62 NSCLC
[44] = system: DU-145 prostate
[45] = system: HOP-92 NSCLC
[46] = system: A498 renal
[47] = system: HL-60(TB) leukemia
[48] = system: UO-31 renal
[49] = system: T-47D breast
[50] = system: SN12C renal
[51] = system: TK-10 renal
[52] = system: OVCAR-5 ovarian
[53] = system: A549 NSCLC
[54] = system: HT29 colon
[55] = system: OVCAR-3 ovarian
[56] = system: OVCAR-4 ovarian
[57] = system: M14 melanoma

Molecule `COc1ccc(CCN2CCC(CN(C)Cc3cnn(-c4ccccc4)c3)CC2)cc1` has a GI50 [1] of 3.14 µM, a TGI [1] of 10.9 µM and a GI50 [2] of 5.42 µM. The TGI [2] was 19.9 µM, the GI50 [3] was 13 µM and the TGI [3] was 27 µM. For the same molecule, the GI50 [4] was 25.1 µM, the TGI [4] was greater than 100 µM and the GI50 [5] was 4.49 µM. It also gave a TGI [5] of 18.5 µM, a GI50 [6] of 10.9 µM and a TGI [6] of 33 µM. The GI50 [7] was 14.5 µM, the TGI [7] was 36.2 µM and the GI50 [8] was 5.13 µM. The TGI [8] was 18.1 µM, the GI50 [9] was 16.5 µM and the TGI [9] was 37.5 µM. For the same molecule, the GI50 [10] was 7.74 µM, the TGI [10] was 24.1 µM and the GI50 [11] was 13.9 µM. For the same molecule, the TGI [11] was 28.2 µM, the GI50 [12] was 14.2 µM and the TGI [12] was 34.7 µM. For the same molecule, the GI50 [13] was 12.1 µM, the TGI [13] was 24.8 µM and the GI50 [14] was 17.3 µM. For the same molecule, the TGI [14] was 32.8 µM, the GI50 [15] was 26.7 µM and the TGI [15] was greater than 100 µM. For the same molecule, the GI50 [16] was 16.2 µM, the TGI [16] was 39.9 µM and the GI50 [17] was 4.54 µM. The TGI [17] was 19 µM, the GI50 [18] was 2.08 µM and the TGI [18] was 4.29 µM. The GI50 [19] was 15.4 µM, the TGI [19] was 30.8 µM and the GI50 [20] was 12.1 µM. The TGI [20] was 25.2 µM, the GI50 [21] was 2.54 µM and the TGI [21] was 6.8 µM. It also gave a GI50 [22] of 3.96 µM, a TGI [22] of 14.9 µM and a GI50 [23] of 3.92 µM. It also gave a TGI [23] of 25.2 µM, a GI50 [24] of 2.63 µM and a TGI [24] of 7.36 µM. It also gave a GI50 [25] of 18.7 µM, a TGI [25] of 39.2 µM and a GI50 [26] of 3.58 µM. For the same molecule, the TGI [26] was 20.1 µM, the GI50 [27] was 11.8 µM and the TGI [27] was 25.6 µM. For the same molecule, the GI50 [28] was 16.5 µM, the TGI [28] was 33.6 µM and the GI50 [29] was 2.52 µM. It also gave a TGI [29] of 7.53 µM, a GI50 [30] of 21.2 µM and a TGI [30] of 66 µM. It also gave a GI50 [31] of 2.77 µM, a TGI [31] of 8.08 µM and a GI50 [32] of 12 µM. It also gave a TGI [32] of 24.6 µM, a GI50 [33] of 12.8 µM and a TGI [33] of 66.7 µM. It also gave a GI50 [34] of 8.83 µM, a TGI [34] of 21.2 µM and a GI50 [35] of 21 µM. It also gave a TGI [35] of 78.6 µM, a GI50 [36] of 32.5 µM and a TGI [36] greater than 100 µM. It also gave a GI50 [37] of 3.42 µM, a TGI [37] of 11.7 µM and a GI50 [38] of 29.8 µM. It also gave a TGI [38] greater than 100 µM, a GI50 [39] of 13.5 µM and a TGI [39] of 32.6 µM. For the same molecule, the GI50 [40] was 13.8 µM, the TGI [40] was 42.1 µM and the GI50 [41] was 25.6 µM. It also gave a TGI [41] greater than 100 µM, a GI50 [42] of 2.59 µM and a TGI [42] of 7.12 µM. The GI50 [43] was 15.4 µM, the TGI [43] was 35.6 µM and the GI50 [44] was 37 µM. It also gave a TGI [44] greater than 100 µM, a GI50 [45] of 4.61 µM and a TGI [45] of 19.3 µM. For the same molecule, the GI50 [46] was 1.58 µM, the TGI [46] was 7.78 µM and the GI50 [47] was 20 µM. For the same molecule, the TGI [47] was 48.4 µM, the GI50 [48] was 3.37 µM and the TGI [48] was 16.2 µM. For the same molecule, the GI50 [49] was 10.4 µM, the TGI [49] was 30.7 µM and the GI50 [50] was 21.3 µM. For the same molecule, the TGI [50] was greater than 100 µM, the GI50 [51] was 16.3 µM and the TGI [51] was 32.6 µM. The GI50 [52] was 14.8 µM, the TGI [52] was 58.3 µM and the GI50 [53] was 19.4 µM. The TGI [53] was 48.9 µM, the GI50 [54] was 4.29 µM and the TGI [54] was 17.3 µM. The GI50 [55] was 20.4 µM, the TGI [55] was 52.4 µM and the GI50 [56] was 7.75 µM. The TGI [56] was 57.5 µM.
In the case of `Cc1nc2cc(Nc3nc(Nc4ccc(F)cc4)nc(N4CCOCC4)n3)ccc2n1Cc1ccccc1`, the GI50 [1] is reported as 2.94 µM, the TGI [1] is reported as 11.7 µM and the GI50 [2] is reported as 3.89 µM. The TGI [2] was 18.5 µM, the GI50 [3] was 1.99 µM and the TGI [3] was 4.6 µM. For the same molecule, the GI50 [4] was 2.91 µM, the TGI [4] was 16.8 µM and the GI50 [5] was 2.19 µM. For the same molecule, the TGI [5] was 5.18 µM, the GI50 [6] was 3.05 µM and the TGI [6] was 13.1 µM. It also gave a GI50 [7] of 8.19 µM, a TGI [7] of 25.7 µM and a GI50 [9] of 4.34 µM. For the same molecule, the TGI [9] was 23.6 µM, the GI50 [11] was 3.23 µM and the TGI [11] was 13.8 µM. It also gave a GI50 [12] of 5.41 µM, a TGI [12] of 49.2 µM and a GI50 [13] of 4.3 µM. The TGI [13] was 20.7 µM, the GI50 [14] was 2.49 µM and the TGI [14] was 4.94 µM. The GI50 [15] was 5.22 µM, the TGI [15] was 45.4 µM and the GI50 [16] was 10.5 µM. It also gave a TGI [16] of 25.1 µM, a GI50 [17] of 4.1 µM and a TGI [17] of 18.9 µM. It also gave a GI50 [19] of 3.77 µM, a TGI [19] of 14.2 µM and a GI50 [20] of 3.01 µM. It also gave a TGI [20] of 9.03 µM, a GI50 [21] of 3.95 µM and a TGI [21] of 15.9 µM. The GI50 [22] was 2.9 µM, the TGI [22] was 11.1 µM and the GI50 [23] was 2.4 µM. It also gave a TGI [23] of 7.38 µM, a GI50 [25] of 2.26 µM and a TGI [25] of 5.02 µM. It also gave a GI50 [26] of 3.36 µM, a TGI [26] of 14.7 µM and a GI50 [27] of 1.98 µM. The TGI [27] was 4 µM, the GI50 [28] was 3.97 µM and the TGI [28] was 30.8 µM. The GI50 [29] was 3.17 µM, the TGI [29] was 9.6 µM and the GI50 [30] was 5.72 µM. The TGI [30] was greater than 100 µM, the GI50 [31] was 3.54 µM and the TGI [31] was 14.5 µM. It also gave a GI50 [32] of 1.69 µM, a TGI [32] of 3.33 µM and a GI50 [33] of 2.7 µM. The TGI [33] was 8.04 µM, the GI50 [34] was 2.73 µM and the TGI [34] was 20.4 µM. For the same molecule, the GI50 [35] was 2.75 µM, the TGI [35] was 8.2 µM and the GI50 [36] was 5.79 µM. For the same molecule, the TGI [36] was 24.2 µM, the GI50 [37] was 1.84 µM and the TGI [37] was 3.33 µM. For the same molecule, the GI50 [38] was 6.43 µM, the TGI [38] was 30.6 µM and the GI50 [39] was 3.84 µM. It also gave a TGI [39] of 58.5 µM, a GI50 [40] of 2.19 µM and a TGI [40] of 5.86 µM. For the same molecule, the GI50 [41] was 2.3 µM, the TGI [41] was 5.87 µM and the GI50 [42] was 2.11 µM. For the same molecule, the TGI [42] was 4.42 µM, the GI50 [43] was 9.06 µM and the TGI [43] was 24 µM. It also gave a GI50 [44] of 4.81 µM, a TGI [44] of 18.8 µM and a GI50 [57] of 3.16 µM. It also gave a TGI [57] of 8.59 µM, a GI50 [46] of 1.3 µM and a TGI [46] of 4.57 µM. It also gave a GI50 [47] of 2.07 µM, a TGI [47] of 4.73 µM and a GI50 [48] of 3.24 µM. For the same molecule, the TGI [48] was 14.6 µM, the GI50 [49] was 3.88 µM and the TGI [49] was greater than 100 µM. It also gave a GI50 [50] of 4.63 µM, a TGI [50] of 27.4 µM and a GI50 [52] of 12.3 µM. For the same molecule, the TGI [52] was 28.6 µM, the GI50 [53] was 3.2 µM and the TGI [53] was 14.2 µM. The GI50 [54] was 1.93 µM, the TGI [54] was 4.07 µM and the GI50 [55] was 2.75 µM. The TGI [55] was 7.14 µM, the GI50 [56] was 4.47 µM and the TGI [56] was 41.8 µM.
